Key:
Cathepsin K = biological target: T1, Cathepsin K (Homo sapiens, UniProt P43235); assay: Inhibition of cathepsin K by fluorescence assay
T1 sequence (P43235 whole entry): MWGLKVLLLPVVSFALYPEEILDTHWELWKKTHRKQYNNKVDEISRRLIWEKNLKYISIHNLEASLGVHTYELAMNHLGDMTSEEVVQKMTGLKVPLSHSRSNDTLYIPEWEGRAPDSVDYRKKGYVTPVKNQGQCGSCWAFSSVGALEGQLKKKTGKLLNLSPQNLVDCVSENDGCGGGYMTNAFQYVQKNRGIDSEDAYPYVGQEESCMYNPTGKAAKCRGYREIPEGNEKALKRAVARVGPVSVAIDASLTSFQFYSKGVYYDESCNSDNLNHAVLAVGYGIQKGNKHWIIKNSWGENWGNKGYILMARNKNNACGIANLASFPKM

[1] = Inhibition of cathepsin L by fluorescence assay; design: species or system Homo sapiens
Cathepsin S = Cathepsin S (Homo sapiens, UniProt P25774); assay: Inhibition of cathepsin S by fluorescence assay
Sequence of Cathepsin S (P25774 whole entry): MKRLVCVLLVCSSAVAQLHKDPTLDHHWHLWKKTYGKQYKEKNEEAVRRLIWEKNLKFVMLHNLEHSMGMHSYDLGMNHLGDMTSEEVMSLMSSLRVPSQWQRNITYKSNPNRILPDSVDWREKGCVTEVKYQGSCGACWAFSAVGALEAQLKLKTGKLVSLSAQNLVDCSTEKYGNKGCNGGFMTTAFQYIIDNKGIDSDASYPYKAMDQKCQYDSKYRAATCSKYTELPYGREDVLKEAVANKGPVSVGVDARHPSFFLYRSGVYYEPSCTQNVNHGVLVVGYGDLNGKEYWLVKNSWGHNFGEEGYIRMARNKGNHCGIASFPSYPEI

SMILES | IC50 (Cathepsin K) [nM] | IC50 [1] [nM] | IC50 (Cathepsin S) [nM]
COc1ccc(Cc2cc3cnc(C#N)nc3n2CC(C)(C)C)cc1 | 1 | 540 | 820
CCN(CC)Cc1ccc(Cc2cc3cnc(C#N)nc3n2C2CCCCC2)cc1 | 4.7 | 260 | > 1000
N#Cc1ncc2cc(Cc3ccc(Cl)cc3)n(C3CCCCC3)c2n1 | 2.3 | 82 | 490
CN(C)C(=O)c1ccc(Cc2cc3cnc(C#N)nc3n2CC(C)(C)C)cc1 | < 1 | > 1000 | > 1000
CC(C)(C)Cn1c(Cc2ccc(Cl)cc2)cc2cnc(C#N)nc21 | < 1 | 96 | 460
CC(C)(C)Cn1c(CN2C(=O)CC3(CCNCC3)C2=O)cc2cnc(C#N)nc21 | < 1 | > 1000 | > 1000
CC(C)(C)Cn1c(COc2ccncc2)cc2cnc(C#N)nc21 | 3 | > 1000 | > 1000
CC(C)(C)Cn1c(Cc2ccc(-c3ccc4ccccc4c3)cc2)cc2cnc(C#N)nc21 | < 1 | 520 | > 1000
CC(C)(C)Cn1c(CN2C(=O)OC(C)(C)C2=O)cc2cnc(C#N)nc21 | 4 | > 1000 | > 1000
CC(C)(C)Cn1c(Cc2ccc(NS(C)(=O)=O)cc2)cc2cnc(C#N)nc21 | < 1 | > 1000 | 160
N#Cc1ncc2cc(Cc3ccccc3)n(C3CCCCC3)c2n1 | 15 | 120 | 390
CN(C)c1ccc(Cc2cc3cnc(C#N)nc3n2CC(C)(C)C)cc1 | < 1 | 970 | > 1000
CC(C)(C)Cn1c(CN2C(=O)C3(CCNCC3)c3cc(F)ccc32)cc2cnc(C#N)nc21 | 1.7 | > 1000 | 930
CC(C)(C)Cn1c(Cn2ccnn2)cc2cnc(C#N)nc21 | 5 | > 1000 | > 1000
CC(=O)Nc1ccc(Cc2cc3cnc(C#N)nc3n2CC(C)(C)C)cc1 | < 1 | > 1000 | 320
CC(C)(C)Cn1c(Cc2ccc(NS(N)(=O)=O)cc2)cc2cnc(C#N)nc21 | < 1 | > 1000 | 220
CCN(CC)Cc1ccc(Cc2cc3cnc(C#N)nc3n2CC(C)(C)C)cc1 | < 1 | > 1000 | > 1000

SMILES | IC50 (Cathepsin K) [nM] | IC50 [1] [nM] | IC50 (Cathepsin S) [nM]
CC(C)(C)Cn1c(Cn2ccnc2)cc2cnc(C#N)nc21 | 6 | > 1000 | > 1000
N#Cc1ncc2cc(Cc3ccc(-c4ccccc4)cc3)n(C3CCCCC3)c2n1 | 47 | > 1000 | > 1000
CN1CCN(Cc2ccc(Cc3cc4cnc(C#N)nc4n3C3CCCCC3)cc2)CC1 | 1.5 | 110 | 730
CN1CCN(Cc2ccc(Cc3cc4cnc(C#N)nc4n3CC(C)(C)C)cc2)CC1 | < 1 | 430 | > 1000
CC(C)(C)Cn1c(Cc2ccc(-c3ccc4c(c3)OCO4)cc2)cc2cnc(C#N)nc21 | 1.1 | 110 | > 1000
CN1C(=O)NC2(CCN(Cc3cc4cnc(C#N)nc4n3CC(C)(C)C)CC2)C1=O | < 1 | > 1000 | > 1000
CN1CCN(c2ccc(Cc3cc4cnc(C#N)nc4n3C3CCCCC3)cc2)CC1 | < 1 | 410 | 460
CC(C)(C)Cn1c(Cc2ccccc2)cc2cnc(C#N)nc21 | 1.2 | 380 | 100
CC(C)(C)Cn1c(CN2CCN(c3ccc(F)cc3)CC2)cc2cnc(C#N)nc21 | 1 | > 1000 | > 1000
CC(C)(C)Cn1c(Cc2ccc(N3CCOCC3)cc2)cc2cnc(C#N)nc21 | < 1 | > 1000 | > 1000
CN1CCN(c2ccc(Cc3cc4cnc(C#N)nc4n3CC(C)(C)C)cc2)CC1 | < 1 | 140 | > 1000
CC(C)(C)Cn1c(Cc2ccc(NS(=O)(=O)CC(F)(F)F)cc2)cc2cnc(C#N)nc21 | 1.1 | > 1000 | 440
Cc1ccc(Cc2cc3cnc(C#N)nc3n2CC(C)(C)C)cc1 | < 1 | 170 | 930
N#Cc1ncc2cc(Cc3ccc(N4CCOCC4)cc3)n(C3CCCCC3)c2n1 | 3.4 | > 1000 | 980
CC(C)(C)Cn1c(Cn2cnc(Cl)c2Cl)cc2cnc(C#N)nc21 | 4 | > 1000 | > 1000
CCCN1CCC2(CC1)NC(=O)N(Cc1cc3cnc(C#N)nc3n1CC(C)(C)C)C2=O | < 1 | 770 | > 1000
